Patent publication US20230089557A1, “METHODS OF TREATING DLBCL USING BTK INHIBITORS AND COMBINATIONS THEREOF” (BEIGENE SWITZERLAND GMBH, priority 2020, published 2023)

Test system: R/R non-GCB DLBCL
Experiment: Compound 1 in combination with anti-CD20 antibody in patients with R/R non-GCB DLBCL
Format: in vivo, human
Details: for unadjusted ORR: non-GCB DLBCL
Description: A total of 121 patients with R/R non-GCB DLBCL were recruited in four Compound 1 treatment studies that were conducted at a similar time period. Two of the four studies were Compound 1 monotherapy (n=79) and two were Compound 1 combined with an anti-CD20 antibody therapy (n=42). Similar inclusion and exclusion criteria and response evaluation criteria were used across all studies. Fifty-six non-GCB patients were further subtyped by gene expression profiling (GEP) using the HTG EdgeSeq DLBCL Cell of Origin Assay. The expression of approximately 90 lymphoma-associated genes from the HTG GEP assay were analyzed by R package limma for correlation with response to Compound 1 treatment. Seventy-seven patient samples were tested by next-generation sequencing (NGS) with a panel of genes. Chi-square test was used to evaluate the correlation between mutations and the objective response rate (ORR).
Combination therapy schedule 1: Compound 1 was administered orally every day in each cycle at 160 mg BID in 28-day cycles, in combination with obinutuzumab, in patients with R/R non-GCB DLBCL. Obinutuzumab was administered for up to 6 cycles consistent with the U.S. label regimen (100 mg at Day 1 Cycle 1, 1000 mg at Day 8 and Day 15, 900 mg at Day 2 Cycle 1 followed by 1000 mg on day one of cycles 2-6).
Combination therapy schedule 2: Compound 1 was administrated orally every day in each cycle at 160 mg BID in 28-day cycles, in combination with rituximab, in patients with R/R non-GCB DLBCL. Rituximab was administered at 375 mg/m2 intravenously on Cycle 1 Days 1, 8, 15, 22, and on Day 1 of Cycles 4, 6, 8, 10. Compound 1 was administered at least 30 minutes prior to the initiation of the rituximab infusion.
42 patients with non-GCB DLBCL were subjected to Compound 1 plus anti-CD20 antibody Combination therapy schedule 1 or 2.

[1] = combination therapy Total (N = 42), ABC Subtype of DLBCL Patients
[2] = combination therapy Total (N = 42), CD79B ITAM_Mut
[3] = combination therapy Total (N = 42), CD79B ITAM_WT
[4] = combination therapy Total (N = 42), CD79B_Mut
[5] = combination therapy Total (N = 42), CD79B_WT
[6] = combination therapy Total (N = 42), MYD88_L265P
[7] = combination therapy Total (N = 42), MYD88_L265P/CD79B_Mut
[8] = combination therapy Total (N = 42), MYD88_WT
[9] = combination therapy Total (N = 42), NOTCH1_Mut
[10] = combination therapy Total (N = 42), NOTCH1_WT
[11] = combination therapy Total (N = 42), Non-GCB DLBCL Patients
[12] = combination therapy Total (N = 42), Non-GCB DLBCL Patients with Sequence Available
[13] = combination therapy Total (N = 42), Other (not MYD88_L265P/CD79B_Mut)
[14] = combination therapy Total (N = 42), Patients with Sequence Available
[15] = plus obinutuzumab (N = 22), ABC Subtype of DLBCL Patients
[16] = plus obinutuzumab (N = 22), CD79B ITAM_Mut
[17] = plus obinutuzumab (N = 22), CD79B ITAM_WT
[18] = plus obinutuzumab (N = 22), CD79B_Mut
[19] = plus obinutuzumab (N = 22), CD79B_WT
[20] = plus obinutuzumab (N = 22), MYD88_L265P
[21] = plus obinutuzumab (N = 22), MYD88_L265P/CD79B_Mut
[22] = plus obinutuzumab (N = 22), MYD88_WT
[23] = plus obinutuzumab (N = 22), NOTCH1_Mut
[24] = plus obinutuzumab (N = 22), NOTCH1_WT
[25] = plus obinutuzumab (N = 22), Non-GCB DLBCL Patients
[26] = plus obinutuzumab (N = 22), Non-GCB DLBCL Patients with Sequence Available
[27] = plus obinutuzumab (N = 22), Other (not MYD88_L265P/CD79B_Mut)
[28] = plus obinutuzumab (N = 22), Patients with Sequence Available
[29] = plus rituximab (N = 20), ABC Subtype of DLBCL Patients
[30] = plus rituximab (N = 20), CD79B ITAM_Mut
[31] = plus rituximab (N = 20), CD79B ITAM_WT
[32] = plus rituximab (N = 20), CD79B_Mut
[33] = plus rituximab (N = 20), CD79B_WT
[34] = plus rituximab (N = 20), MYD88_L265P
[35] = plus rituximab (N = 20), MYD88_L265P/CD79B_Mut
[36] = plus rituximab (N = 20), MYD88_WT
[37] = plus rituximab (N = 20), NOTCH1_Mut
[38] = plus rituximab (N = 20), NOTCH1_WT
[39] = plus rituximab (N = 20), Non-GCB DLBCL Patients
[40] = plus rituximab (N = 20), Non-GCB DLBCL Patients with Sequence Available
[41] = plus rituximab (N = 20), Other (not MYD88_L265P/CD79B_Mut)
[42] = plus rituximab (N = 20), Patients with Sequence Available

C=CC(=O)N1CCC([C@@H]2CCNc3c(C(N)=O)c(-c4ccc(Oc5ccccc5)cc4)nn32)CC1 [Compound 1, (S)-7-(1-acryloylpiperidin-4-yl)-2-(4-phenoxyphenyl)-4,5,6,7-tetra-hydropyrazolo[1,5-a]pyrimidine-3-carboxamide]
ORR (GEP-confirmed activated B-cell DLBCL, first of the two combo-therapies (obinutuzumab)): 50% | ORR (GEP-confirmed activated B-cell DLBCL, second of the two combo-therapies (rituximab)): 40% | ORR [1]: 45.5 | Response/Patients [1]: 5/11 | ORR [2]: 83.3 | Response/Patients [2]: 5/6 | Difference in ORR (95% CI) (combination therapy Total (N = 42), CD79B ITAM_Mut vs CD79B ITAM_WT): 61.1 | ORR [3]: 22.2 | Response/Patients [3]: 6/27 | ORR [4]: 75.0 | Response/Patients [4]: 6/8 | Difference in ORR (95% CI) (combination therapy Total (N = 42), CD79B_Mut vs CD79B_WT): 55.0 | ORR [5]: 20.0 | Response/Patients [5]: 5/25 | ORR [6]: 66.7 | Response/Patients [6]: 4/6 | Difference in ORR (95% CI) (combination therapy Total (N = 42), MYD88_L265P vs MYD88_WT): 40.7 | ORR [7]: 75.0 | Response/Patients [7]: 3/4 | Difference in ORR (95% CI) (combination therapy Total (N = 42), MYD88_L265P/CD79B_Mut vs Other): 47.4 | ORR [8]: 25.9 | Response/Patients [8]: 7/27 | ORR [9]: 40.0 | Response/Patients [9]: 2/5 | Difference in ORR (95% CI) (combination therapy Total (N = 42), NOTCH1_Mut vs NOTCH1_WT): 7.9 | ORR [10]: 32.1 | Response/Patients [10]: 9/28 | ORR [11]: 28.6 | Response/Patients [11]: 12/42 | ORR [12]: 33.3 | Response/Patients [12]: 11/33 | ORR [13]: 27.6 | Response/Patients [13]: 8/29 | ORR [14]: 35.3 | Response/Patients [14]: 12/34 | unadjusted ORR (first of the two combo-therapies (obinutuzumab)): 22.7% | unadjusted ORR (second of the two combo-therapies (rituximab)): 35% | ORR [15]: 50.0 | Response/Patients [15]: 3/6 | ORR [16]: 100.0 | Response/Patients [16]: 3/3 | Difference in ORR (95% CI) (plus obinutuzumab (N = 22), CD79B ITAM_Mut vs CD79B ITAM_WT, in %): 91.7 | ORR [17]: 8.3 | Response/Patients [17]: 1/12 | ORR [18]: 100.0 | Response/Patients [18]: 3/3 | Difference in ORR (95% CI) (plus obinutuzumab (N = 22), CD79B_Mut vs CD79B_WT, in %): 91.7 | ORR [19]: 8.3 | Response/Patients [19]: 1/12 | ORR [20]: 100.0 | Response/Patients [20]: 3/3 | Difference in ORR (95% CI) (plus obinutuzumab (N = 22), MYD88_L265P vs MYD88_WT, in %): 91.7 | ORR [21]: 100.0 | Response/Patients [21]: 3/3 | Difference in ORR (95% CI) (plus obinutuzumab (N = 22), MYD88_L265P/CD79B_Mut vs Other, in %): 91.7 | ORR [22]: 8.3 | Response/Patients [22]: 1/12 | ORR [23]: 66.7 | Response/Patients [23]: 2/3 | Difference in ORR (95% CI) (plus obinutuzumab (N = 22), NOTCH1_Mut vs NOTCH1_WT): 50.0 | ORR [24]: 16.7 | Response/Patients [24]: 2/12 | ORR [25]: 22.7 | Response/Patients [25]: 5/22 | ORR [26]: 26.7 | Response/Patients [26]: 4/15 | ORR [27]: 8.3 | Response/Patients [27]: 1/12 | ORR [28]: 31.3 | Response/Patients [28]: 5/16 | ORR [29]: 40.0 | Response/Patients [29]: 2/5 | ORR [30]: 66.7 | Response/Patients [30]: 2/3 | Difference in ORR (95% CI) (plus rituximab (N = 20), CD79B ITAM_Mut vs CD79B ITAM_WT): 33.3 | ORR [31]: 33.3 | Response/Patients [31]: 5/15 | ORR [32]: 60.0 | Response/Patients [32]: 3/5 | Difference in ORR (95% CI) (plus rituximab (N = 20), CD79B_Mut vs CD79B_WT): 29.2 | ORR [33]: 30.8 | Response/Patients [33]: 4/13 | ORR [34]: 33.3 | Response/Patients [34]: 1/3 | Difference in ORR (95% CI) (plus rituximab (N = 20), MYD88_L265P vs MYD88_WT): −6.7 | ORR [35]: 0.0 | Response/Patients [35]: 0/1 | Difference in ORR (95% CI) (plus rituximab (N = 20), MYD88_L265P/CD79B_Mut vs Other): −41.2 | ORR [36]: 40.0 | Response/Patients [36]: 6/15 | ORR [37]: 0.0 | Response/Patients [37]: 0/2 | Difference in ORR (95% CI) (plus rituximab (N = 20), NOTCH1_Mut vs NOTCH1_WT): −43.8 | ORR [38]: 43.8 | Response/Patients [38]: 7/16 | ORR [39]: 35.0 | Response/Patients [39]: 7/20 | ORR [40]: 38.9 | Response/Patients [40]: 7/18 | ORR [41]: 41.2 | Response/Patients [41]: 7/17 | ORR [42]: 38.9 | Response/Patients [42]: 7/18
